Laboratory results from BigSolDB 2.1.

Clc1ccccc1C(c1ccccc1)(c1ccccc1)n1ccnc1
Conditions	solubility (mole fraction)
in ethyl acetate, 283.11 K	0.00714
in ethyl acetate, 288.17 K	0.00838
in ethyl acetate, 293.24 K	0.01
in ethyl acetate, 298.15 K	0.0119
in ethyl acetate, 303.14 K	0.0142
in ethyl acetate, 308.18 K	0.0168
in ethyl acetate, 313.12 K	0.0198
in ethyl acetate, 318.16 K	0.0233
in ethyl acetate, 323.19 K	0.0275
in isobutanol, 283.09 K	0.0157
in isobutanol, 288.15 K	0.0202
in isobutanol, 293.11 K	0.0251
in isobutanol, 298.17 K	0.0311
in isobutanol, 303.16 K	0.0385
in isobutanol, 308.21 K	0.0477
in isobutanol, 313.15 K	0.0589
in isobutanol, 318.14 K	0.0722
in isobutanol, 323.18 K	0.0873
in isopentanol, 283.13 K	0.0157
in isopentanol, 288.18 K	0.0193
in isopentanol, 293.14 K	0.0239
in isopentanol, 298.16 K	0.0296
in isopentanol, 303.13 K	0.0366
in isopentanol, 308.18 K	0.045
in isopentanol, 313.12 K	0.0548
in isopentanol, 318.15 K	0.0668
in isopentanol, 323.19 K	0.081
in isopropanol, 283.1 K	0.00571
in isopropanol, 288.15 K	0.00723
in isopropanol, 293.13 K	0.00916
in isopropanol, 298.16 K	0.0115
in isopropanol, 303.12 K	0.0145
in isopropanol, 308.15 K	0.0185
in isopropanol, 313.19 K	0.0235
in isopropanol, 318.16 K	0.03
in isopropanol, 323.15 K	0.0384
in isopropyl acetate, 283.1 K	0.00518
in isopropyl acetate, 288.16 K	0.00615
in isopropyl acetate, 293.2 K	0.0073
in isopropyl acetate, 298.19 K	0.00868
in isopropyl acetate, 303.15 K	0.0102
in isopropyl acetate, 308.12 K	0.0121
in isopropyl acetate, 313.15 K	0.0144
in isopropyl acetate, 318.19 K	0.0171
in isopropyl acetate, 323.17 K	0.0203
in methyl acetate, 283.15 K	0.00661
in methyl acetate, 288.17 K	0.00792
in methyl acetate, 293.1 K	0.00953
in methyl acetate, 298.21 K	0.0114
in methyl acetate, 303.15 K	0.0137
in methyl acetate, 308.16 K	0.0164
in methyl acetate, 313.12 K	0.0196
in methyl acetate, 318.14 K	0.0235
in methyl acetate, 323.18 K	0.0281
in methyl propionate, 283.13 K	0.00984
in methyl propionate, 288.17 K	0.0117
in methyl propionate, 293.21 K	0.0138
in methyl propionate, 298.15 K	0.0163
in methyl propionate, 303.14 K	0.0192
in methyl propionate, 308.17 K	0.0227
in methyl propionate, 313.08 K	0.0268
in methyl propionate, 318.19 K	0.0316
in methyl propionate, 323.15 K	0.0373
in n-butanol, 283.16 K	0.0151
in n-butanol, 288.11 K	0.0188
in n-butanol, 293.15 K	0.0235
in n-butanol, 298.2 K	0.0289
in n-butanol, 303.14 K	0.0356
in n-butanol, 308.18 K	0.0439
in n-butanol, 313.15 K	0.0538
in n-butanol, 318.17 K	0.0659
in n-butanol, 323.16 K	0.0798
in n-butyl acetate, 283.16 K	0.00743
in n-butyl acetate, 288.19 K	0.00886
in n-butyl acetate, 293.14 K	0.0104
in n-butyl acetate, 298.16 K	0.0124
in n-butyl acetate, 303.11 K	0.0148
in n-butyl acetate, 308.09 K	0.0176
in n-butyl acetate, 313.25 K	0.0211
in n-butyl acetate, 318.15 K	0.0251
in n-butyl acetate, 323.13 K	0.0299
in n-heptanol, 283.17 K	0.0108
in n-heptanol, 288.14 K	0.0151
in n-heptanol, 293.18 K	0.0198
in n-heptanol, 298.16 K	0.0251
in n-heptanol, 303.1 K	0.0316
in n-heptanol, 308.15 K	0.039
in n-heptanol, 313.19 K	0.0474
in n-heptanol, 318.08 K	0.0578
in n-heptanol, 323.16 K	0.0695
in n-hexanol, 283.08 K	0.0145
in n-hexanol, 288.13 K	0.0185
in n-hexanol, 293.16 K	0.0231
in n-hexanol, 298.15 K	0.0287
in n-hexanol, 303.19 K	0.0356
in n-hexanol, 308.14 K	0.0432
in n-hexanol, 313.1 K	0.053
in n-hexanol, 318.21 K	0.064
in n-hexanol, 323.17 K	0.0769
in n-octanol, 283.06 K	0.0118
in n-octanol, 288.15 K	0.0159
in n-octanol, 293.13 K	0.0203
in n-octanol, 298.19 K	0.0247
in n-octanol, 303.11 K	0.0301
in n-octanol, 308.22 K	0.0366
in n-octanol, 313.18 K	0.0453
in n-octanol, 318.09 K	0.0553
in n-octanol, 323.17 K	0.0661
in n-pentanol, 283.19 K	0.0169
in n-pentanol, 288.15 K	0.0213
in n-pentanol, 293.13 K	0.0269
in n-pentanol, 298.1 K	0.0325
in n-pentanol, 303.12 K	0.04
in n-pentanol, 308.15 K	0.0486
in n-pentanol, 313.07 K	0.0587
in n-pentanol, 318.14 K	0.0707
in n-pentanol, 323.17 K	0.085
in n-propanol, 283.15 K	0.0144
in n-propanol, 288.12 K	0.0172
in n-propanol, 293.14 K	0.0213
in n-propanol, 298.18 K	0.0263
in n-propanol, 303.16 K	0.0327
in n-propanol, 308.15 K	0.0405
in n-propanol, 313.11 K	0.05
in n-propanol, 318.17 K	0.0618
in n-propanol, 323.18 K	0.0761
in n-propyl acetate, 283.15 K	0.008
in n-propyl acetate, 288.14 K	0.0095
in n-propyl acetate, 293.19 K	0.0112
in n-propyl acetate, 298.17 K	0.0132
in n-propyl acetate, 303.16 K	0.0156
in n-propyl acetate, 308.12 K	0.0185
in n-propyl acetate, 313.21 K	0.0217
in n-propyl acetate, 318.15 K	0.0257
in n-propyl acetate, 323.13 K	0.0303
in sec-butanol, 283.15 K	0.0101
in sec-butanol, 288.16 K	0.013
in sec-butanol, 293.21 K	0.0165
in sec-butanol, 298.18 K	0.021
in sec-butanol, 303.13 K	0.0267
in sec-butanol, 308.15 K	0.0338
in sec-butanol, 313.19 K	0.0425
in sec-butanol, 318.11 K	0.0532
in sec-butanol, 323.14 K	0.0657
